Data: patent US20230250096A1, “SUBSTITUTED PHENYL-1H-PYRROLO[2,3-c] PYRIDINE DERIVATIVES” (Janssen Pharmaceutica NV, priority 2021, published 2023)

These molecules were tested on MOLM14 cells (assay: Proliferation assay (spheroid confluence, 8 days), MOLM14). Settings: Homo sapiens, MOLM-14, MOLM14; read-out: spheroid assay_MOLM14 IC50.
Format: cell-based, human
Summary of the method: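 Absolute IC50 derived from spheroid confluence imaged on day 8, scaled between DMSO (0%) and a cytotoxic low control such as 1 μM staurosporin, fitted with variable slope, bounds fixed at 0 and 100%. Seeding 200 cells/well (300 for KO-52), ultra-low attachment plates, 0.3% DMSO, 37° C.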

SMILES | IC50 [nM]
CCN(C(=O)c1cc(F)ccc1-n1cc(CC2CN(C(C(C)C)[C@H]3C[C@@H](N4C[C@H]5CN(C(C)=O)C[C@@H]5C4)C3)C2)c2c(C)cncc21)C(C)C (mixture of isomers) [Compound 38a] | < 1.8
Cc1cncc2c1c(C[C@H]1CCN(C(C)C3CCOCC3)C1)cn2-c1ccc(F)cc1C(=O)N(C)C(C)C (mixture of isomers) [Compound 49] | 3
Cc1cncc2c1c(C[C@@H]1CCN(CC(C)C)C1)cn2-c1ccc(F)cc1C(=O)N(C)C(C)C (single isomer, unassigned) [Compound 44] | 71
Cc1cncc2c1c(C[C@H]1CCN([C@@H](C)C3CCOCC3)C1)cn2-c1ccc(F)cc1C(=O)N(C)C(C)C (single isomer, unassigned) [Compound 49b] | 3
CC(=O)N1CCC(CN2CC[C@@H](Cc3cn(-c4ccc(F)cc4C(=O)N(C)C(C)C)c4cncc(C)c34)C2)CC1 (single isomer, unassigned) [Compound 50] | 39
COCC(=O)N1CCC(CN2CCC(Cc3cn(-c4ccc(F)cc4C(=O)N(C)C(C)C)c4cncc(C)c34)C2)CC1 (single isomer, unassigned) [Compound 59] | 11
Cc1cncc2c1c(CC1CCN(CC3CCN(C(=O)CC#N)CC3)C1)cn2-c1ccc(F)cc1C(=O)N(C)C(C)C (single isomer, unassigned) [Compound 60] | 13
Cc1cncc2c1c(C[C@H]1CCN(C[C@H]3CC[C@H](NS(C)(=O)=O)CC3)C1)cn2-c1ccc(F)cc1C(=O)N(C)C(C)C (single isomer, unassigned) [Compound 69] | 5
Cc1cncc2c1c(C[C@@H]1CCN(CC3CCOCC3)C1)cn2-c1ccc(F)cc1C(=O)N(C[C@H](C)O)C(C)C (single isomer, unassigned) [Compound 365b] | 8
COCCN(C)CCCC(C(C)C)N1CC[C@@H](Cc2cn(-c3ccc(F)cc3C(=O)N(C)C(C)C)c3cncc(C)c23)C1 (some centres unmarked) [Compound 1] | 2
Cc1cncc2c1c(CC1CN([C@@H](C(C)C)[C@H]3C[C@@H](N4CCC(S(C)(=O)=O)CC4)C3)C1)cn2-c1ccc(F)cc1C(=O)N(C)C(C)C [Compound 33a] | 10
CCN(C(=O)c1cc(F)ccc1-n1cc(CC2CN(C(C(C)C)[C@H]3C[C@@H](N4CCN(S(C)(=O)=O)CC4)C3)C2)c2c(C)cncc21)C(C)C (some centres unmarked) [Compound 37a] | 8
CC(C)C([C@H]1C[C@@H](N(C)C)C1)N1CC(Cc2cn(-c3ccc(F)cc3C(=O)N(C)C(C)C)c3cncc(Cl)c23)C1 (some centres unmarked) [Compound 41] | 14
Cc1cncc2c1c(CC1CN(CC3CCOCC3)C1)cn2-c1ccc(F)cc1C(=O)N(C)C(C)C [Compound 61] | 10
COCC(=O)N1CCC(CN2CC(Cc3cn(-c4ccc(F)cc4C(=O)N(C)C(C)C)c4cncc(C)c34)C2)CC1 [Compound 66] | 18
Cc1cncc2c1c(CC1CN(CC3CCN(C(=O)CC#N)CC3)C1)cn2-c1ccc(F)cc1C(=O)N(C)C(C)C [Compound 67] | 48

Now from value to molecule:

IC50 [nM] | SMILES
5 | CC(=O)N1CCN([C@H]2C[C@@H]([C@@H](C(C)C)N3CC(Cc4cn(-c5ccc(F)cc5C(=O)N(C)C(C)C)c5cncc(C)c45)C3)C2)CC1 (single isomer, unassigned) [Compound 32a]
2 | CC(=O)N1C[C@@H]2CN([C@H]3C[C@@H]([C@@H](C(C)C)N4CC(Cc5cn(-c6ccc(F)cc6C(=O)N(C)C(C)C)c6cncc(Cl)c56)C4)C3)C[C@H]2C1 (single isomer, unassigned) [Compound 39a]
31 | Cc1cncc2c1c(C[C@@H]1CCN(CC3CCOCC3)C1)cn2-c1ccc(F)cc1C(=O)N(C)C(C)C (single isomer, unassigned) [Compound 42]
14 | Cc1cncc2c1c(C[C@H]1CCN(CC3CCOCC3)C1)cn2-c1ccc(F)cc1C(=O)N(C)C(C)C (single isomer, unassigned) [Compound 43]
53 | Cc1cncc2c1c(C[C@H]1CCN(CC(C)C)C1)cn2-c1ccc(F)cc1C(=O)N(C)C(C)C (single isomer, unassigned) [Compound 45]
176 | CC(=O)N1CCC(CN2CCC(Cc3cn(-c4ccc(F)cc4C(=O)N(C)C(C)C)c4cncc(C)c34)CC2)CC1 [Compound 58]
53 | CC(=O)N1CCC(CN2CC(Cc3cn(-c4ccc(F)cc4C(=O)N(C)C(C)C)c4cncc(C)c34)C2)CC1 [Compound 63]
8 | Cc1cncc2c1c(C[C@@H]1CCN(CC3CCOCC3)C1)cn2-c1ccc(F)cc1C(=O)N(CCO)C(C)C [Compound 357]

Same assay, conditions: MOLM14; read-out: spheroid assay_MOLM14 IC50

IC50 [nM] | SMILES
40 | CNC(=O)[C@H]1CC[C@H](CN2CCC(Cc3cn(-c4ccc(F)cc4C(=O)N(C)C(C)C)c4cncc(C)c34)C2)CC1 (single isomer, unassigned) [Compound 70]
83 | CNC(=O)[C@H]1CC[C@H](CN2CCC(Cc3cn(-c4ccc(F)cc4C(=O)N(C)C(C)C)c4cncc(C)c34)C2)CC1 (single isomer, unassigned) [Compound 71]
